According to the CheMixHub viscosity set:
Where “and” joins values, the source holds several entries; their conditions need not be identical. Equal values may be shown once.

Experiment: xn = mol fraction of the nth substance listed

CCCCN(CCCC)CCCC + CO
viscosity [mPa·s], 101.33 kPa
Conditions | 298.15 K | 303.15 K | 308.15 K | 313.15 K | 318.15 K | 323.15 K
x1 = 0.1015 | – | 0.881 | – | 0.778 | – | 0.675
x1 = 0.1093 | 1.013 | – | 0.889 | – | 0.735 | –
x1 = 0.1551 | – | 1.008 | – | 0.896 | – | 0.787
x1 = 0.2027 | 1.21 | – | 1.07 | – | 0.919 | –
x1 = 0.2166 | – | 1.106 | – | 0.994 | – | 0.895
x1 = 0.256 | 1.278 | – | 1.132 | – | 0.992 | –
x1 = 0.2933 | – | 1.177 | – | 1.068 | – | 0.984
x1 = 0.3035 | 1.319 | – | 1.169 | – | 1.036 | –
x1 = 0.3493 | – | 1.208 | – | 1.101 | – | 1.027
x1 = 0.362 | 1.353 | – | 1.197 | – | 1.066 | –
x1 = 0.404 | 1.369 | – | 1.208 | – | 1.073 | –
x1 = 0.4195 | – | 1.228 | – | 1.12 | – | 1.044
x1 = 0.4528 | 1.383 | – | 1.215 | – | 1.07 | –
x1 = 0.4998 | – | 1.235 | – | 1.118 | – | 1.03
x1 = 0.5101 | 1.394 | – | 1.216 | – | 1.054 | –
x1 = 0.5426 | – | 1.235 | – | 1.108 | – | 1.011
x1 = 0.5541 | 1.4 | – | 1.213 | – | 1.036 | –
x1 = 0.604 | 1.404 | – | 1.208 | – | 1.014 | –
x1 = 0.6175 | – | 1.232 | – | 1.093 | – | 0.974
x1 = 0.6459 | – | 1.233 | – | 1.085 | – | 0.961
x1 = 0.6609 | 1.408 | – | 1.2 | – | 0.989 | –
x1 = 0.6925 | 1.409 | – | 1.194 | – | 0.977 | –
x1 = 0.7057 | – | 1.224 | – | 1.069 | – | 0.932
x1 = 0.7264 | 1.409 | – | 1.188 | – | 0.966 | –
x1 = 0.763 | – | 1.217 | – | 1.052 | – | 0.911
x1 = 0.8027 | 1.405 | – | 1.172 | – | 0.95 | –
x1 = 0.8237 | – | 1.205 | – | 1.039 | – | 0.897
x1 = 0.8877 | – | 1.19 | – | 1.022 | – | 0.885
x1 = 0.8925 | 1.395 | – | 1.151 | – | 0.941 | –
x1 = 0.9438 | – | 1.178 | – | 1.011 | – | 0.873

CC(C)(N)CO + O
viscosity
Conditions | 303.15 K | 308.15 K | 313.15 K | 318.15 K | 323.15 K
100 kPa, x1 = 0.01 | – | – | 0.77 mPa·s | – | –
100 kPa, x1 = 0.022 | – | – | 0.93 mPa·s | – | –
100 kPa, x1 = 0.048 | – | – | 1.36 mPa·s | – | –
100 kPa, x1 = 0.12 | – | – | 3.15 mPa·s | – | –
101 kPa, x1 = 0.0105 | 0.88 mPa·s | 0.79 mPa·s | 0.72 mPa·s | 0.65 mPa·s | 0.52 mPa·s
101 kPa, x1 = 0.0539 | 1.8 mPa·s | 1.59 mPa·s | 1.39 mPa·s | 1.23 mPa·s | 1 mPa·s
101 kPa, x1 = 0.0728 | 2.48 mPa·s | 2.1 mPa·s | 1.8 mPa·s | 1.56 mPa·s | 1.29 mPa·s
101 kPa, x1 = 0.1 | 3.54 mPa·s | 2.74 mPa·s | 2.29 mPa·s | 1.96 mPa·s | 1.7 mPa·s and 1.95 mPa·s
101 kPa, x1 = 0.1571 | 6.33 mPa·s | 4.28 mPa·s | 3.11 mPa·s | 2.86 mPa·s | 2.58 mPa·s
101 kPa, x1 = 0.2 | 11.06 mPa·s | – | 6.65 mPa·s | – | 4.14 mPa·s
101 kPa, x1 = 0.2559 | 13.3 mPa·s | 7.93 mPa·s | 5.49 mPa·s | 5.09 mPa·s | 4.51 mPa·s
101 kPa, x1 = 0.3 | 20.33 mPa·s | – | 11.74 mPa·s | – | 7.18 mPa·s
101 kPa, x1 = 0.3532 | 23.78 mPa·s | 16.16 mPa·s | 12.24 mPa·s | 9.26 mPa·s | 7.5 mPa·s
101 kPa, x1 = 0.4 | 32.25 mPa·s | – | 18.35 mPa·s | – | 11.9 mPa·s
101 kPa, x1 = 0.4546 | 41.28 mPa·s | 27.92 mPa·s | 20.29 mPa·s | 15.33 mPa·s | 10.88 mPa·s
101 kPa, x1 = 0.5 | 53.64 mPa·s | – | 25.49 mPa·s | – | 15.29 mPa·s
101 kPa, x1 = 0.5537 | 56.6 mPa·s | 38.93 mPa·s | 28.36 mPa·s | 20.9 mPa·s | 14.59 mPa·s
101 kPa, x1 = 0.6 | 60.63 mPa·s | – | 33.17 mPa·s | – | 16.56 mPa·s
101 kPa, x1 = 0.658 | 71.44 mPa·s | 49.28 mPa·s | 35.14 mPa·s | 25.89 mPa·s | 18.35 mPa·s
101 kPa, x1 = 0.7 | 82.98 mPa·s | – | 43.03 mPa·s | – | 20.8 mPa·s
101 kPa, x1 = 0.7001 | 76.44 mPa·s | 53.22 mPa·s | 37.3 mPa·s | 27.62 mPa·s | 19.8 mPa·s
101 kPa, x1 = 0.8 | 91.29 mPa·s | – | 46.27 mPa·s | – | 22.2 mPa·s
101 kPa, x1 = 0.8108 | 85.3 mPa·s | 57.86 mPa·s | 41.82 mPa·s | 31.42 mPa·s | 22.59 mPa·s
101 kPa, x1 = 0.9 | 96.39 mPa·s | – | 47.42 mPa·s | – | 23.4 mPa·s
101 kPa, x1 = 0.9082 | 88.75 mPa·s | 60 mPa·s | 43 mPa·s | 32.18 mPa·s | 22.98 mPa·s
101.33 kPa, x1 = 0.048 | 1.866 mPa·s | – | 1.405 mPa·s | – | 1.099 mPa·s
101.33 kPa, x1 = 0.08 | 3.053 mPa·s | – | 2.168 mPa·s | – | 1.621 mPa·s
